In patent US8859549B2, “Potassium channel modulators” (AbbVie, Inc., priority 2011, dated 2014):

Molecular target: T1, KCNQ 2/3 channels (Homo sapiens, UniProt O43525+O43526)
T1 construct: expressed in transfected cells; host or cells: HEK293
Assay: KCNQ 2/3 channel activation, thallium flux FLIPR assay (BTC-AM dye)
Type: cell-based
Conditions: for Emax: HEK293, maximum response relative to the response of 10 μM retigabine (set at 100%), read-out: % MAX; for Emax / % MAX: HEK293 KCNQ2/KCNQ3 cells; for EC50: HEK293 cells stably expressing human KCNQ2 and KCNQ3 subunits, thallium-induced fluorescence, 4 min compound incubation; for % MAX: maximum response relative to the response of 10 μM retigabine (set at 100%)
Procedure: The following example describes the assay that can be used to identify compounds that activate KCNQ 2/3 channels.
HEK293 cells stably expressing human KCNQ2 and KCNQ3 subunits were seeded in 96-well, black-walled, clear-bottomed, poly-D-lysine coated plates (BD Biosciences, Bedford, Mass.) at a density of 1×10^5 cells per well 24 hours before the assay. On the assay day, BTC-AM dye (Invitrogen, Carlsbad, Calif.) was loaded into the cells by replacing the cell culture medium with 55 μL/well of 3 μg/mL dye in DPBS. Dye loading was allowed to proceed for 2 hours at room temperature and then cells were washed twice with 50 μL/well of assay buffer (in mM: 10 HEPES pH 7.3, 5 glucose, 140 Na-gluconate, 2.5 K-gluconate, 3.6 Ca-gluconate, 2 MgSO4, 0.1 Ouabain) to remove unloaded dye. Cells were incubated in 50 μL of assay buffer before loading onto a FLIPR system (Molecular Devices, Sunnyvale, Calif.). Various concentrations of compounds to be assayed were added to the cells in 50 μL of assay buffer and incubated for 4 minutes. The fluorescence signal was initiated by adding 100 μL of assay buffer containing 6 mM TlNO3 and 10 mM K2SO4. Fluors were excited using the 488-nm line of an argon laser and emission was filtered using a 540±30 nm bandpass filter. Fluorescent signals were recorded for 3 minutes. Sums of the responses over basal responses were plotted versus concentrations of test compounds to obtain an EC50 value. The maximum response for each test compound was determined relative to the response produced by 10 μM retigabine. The maximum response of retigabine at 10 μM was set at 100%.

Compound	Emax [%]	EC50 [µM]	% MAX [%]
Cc1ccc(S(=O)(=O)c2nn(NC(=O)Cc3ccc(Cl)cc3)c(=O)c3ccccc23)cc1 [Example 192, 2-(4-chlorophenyl)-N-{4-[(4-methylphenyl)sulfonyl]-1-oxophthalazin-2(1H)-yl}acetamide]	103	0.116	
O=C(Cc1c(Cl)cccc1Cl)Nn1nc(N2CCOCC2)c2ccccc2c1=O [Example 178, 2-(2,6-dichlorophenyl)-N-[4-(morpholin-4-yl)-1-oxophthalazin-2(1H)-yl]acetamide]	-1.83		
O=C(CC1CC2CCC1C2)Nn1nc(C(=O)c2ccccc2)c2ccccc2c1=O (racemic) [Example 40, (±)-N-(4-benzoyl-1-oxophthalazin-2(1H)-yl)-2-[(exo)-bicyclo[2.2.1]hept-2-yl]acetamide]	135	0.0311	
O=C(Cc1cc(F)cc(F)c1)Nn1nc(N2CCCC2)c2ccccc2c1=O [Example 20, 2-(3,5-difluorophenyl)-N-[1-oxo-4-(pyrrolidin-1-yl)phthalazin-2(1H)-yl]acetamide]	145	0.214	
O=C(Cc1ccc(F)cc1)Nn1nc(N2CCOCC2)c2ccccc2c1=O [Example 150, 2-(4-fluorophenyl)-N-[4-(morpholin-4-yl)-1-oxophthalazin-2(1H)-yl]acetamide]	71.7	12.9	
CCOC(=O)C(C)c1nn(NC(=O)Cc2ccc(Cl)cc2)c(=O)c2ccccc12 (stereo not shown) [Example 109, ethyl 2-(3-{[(4-chlorophenyl)acetyl]amino}-4-oxo-3,4-dihydrophthalazin-1-yl)propanoate]	53.2	1.42	
O=C(O)Cc1nn(NC(=O)Cc2ccc(Cl)cc2)c(=O)c2ccccc12 [Example 114, (3-{[(4-chlorophenyl)acetyl]amino}-4-oxo-3,4-dihydrophthalazin-1-yl)acetic acid]	3.72		
O=C(CC1CC2CCC1C2)Nn1nc(C2CCOCC2)c2ccccc2c1=O (racemic) [Example 28, (±)-2-[(exo)-bicyclo[2.2.1]hept-2-yl]-N-[1-oxo-4-(tetrahydro-2H-pyran-4-yl)phthalazin-2(1H)-yl]acetamide]	145	0.447	
O=C(Cc1cccc([N+](=O)[O-])c1)Nn1nc(N2CCOCC2)c2ccccc2c1=O [Example 156, N-[4-(morpholin-4-yl)-1-oxophthalazin-2(1H)-yl]-2-(3-nitrophenyl)acetamide]	32.8		
O=C(Cc1ccc(Cl)cc1)Nn1nc(S(=O)(=O)c2cc[n+]([O-])cc2)c2ccccc2c1=O [Example 196, 2-(4-chlorophenyl)-N-{4-[(1-oxidopyridin-4-yl)sulfonyl]-1-oxophthalazin-2(1H)-yl}acetamide]	16.6		
O=C(Cc1ccc(C(F)(F)F)cc1)Nn1nc(N2CCOCC2)c2ccccc2c1=O [Example 161, N-[4-(morpholin-4-yl)-1-oxophthalazin-2(1H)-yl]-2-[4-(trifluoromethyl)phenyl]acetamide]	93		
O=C(C[C@@H]1C[C@@H]2C=C[C@H]1C2)Nn1nc(-c2cccs2)c2ccccc2c1=O [Example 13, 2-[(1S,2S,4S)-bicyclo[2.2.1]hept-5-en-2-yl]-N-[1-oxo-4-(thiophen-2-yl)phthalazin-2(1H)-yl]acetamide]	138	0.131	
CC(C)(C)OC(=O)NCc1nn(NC(=O)CC2CCCCC2)c(=O)c2ccccc12 [Example 126, tert-butyl({3-[(cyclohexylacetyl)amino]-4-oxo-3,4-dihydrophthalazin-1-yl}methyl)carbamate]	25.6		
CC(C)(C)OC(=O)NCc1nn(NC(=O)Cc2ccc(F)cc2)c(=O)c2ccccc12 [Example 125, tert-butyl[(3-{[(4-fluorophenyl)acetyl]amino}-4-oxo-3,4-dihydrophthalazin-1-yl)methyl]carbamate]	93.1	9.9	
(1R,2S,5R)-5-methyl-2-(propan-2-yl)cyclohexyl[(3-{[(4-chlorophenyl)acetyl]amino}-4-oxo-3,4-dihydrophthalazin-1-yl)methyl]carbamate [Example 180]		1.61	57.6
O=C(CC1CCOC1)Nn1nc(N2CCOCC2)c2ccccc2c1=O (stereo not shown) [Example 66, N-[4-(morpholin-4-yl)-1-oxophthalazin-2(1H)-yl]-2-(tetrahydrofuran-3-yl)acetamide]	3.89		
O=C(Cc1ccc(Cl)cc1)Nn1nc(Sc2ccc(Br)cc2)c2ccccc2c1=O [Example 195, N-{4-[(4-bromophenyl)sulfanyl]-1-oxophthalazin-2(1H)-yl}-2-(4-chlorophenyl)acetamide]	96.9	0.432	
COc1ccc(CC(=O)Nn2nc(N3CCOCC3)c3ccccc3c2=O)cc1 [Example 147, 2-(4-methoxyphenyl)-N-[4-(morpholin-4-yl)-1-oxophthalazin-2(1H)-yl]acetamide]	18.7		
O=C(Cc1ccc(Cl)cc1)Nn1nc(S(=O)(=O)Cc2ccccc2)c2ccccc2c1=O [Example 216, N-[4-(benzylsulfonyl)-1-oxophthalazin-2(1H)-yl]-2-(4-chlorophenyl)acetamide]	67.1	1.84	
O=C(Cc1ccc(OC(F)(F)F)cc1)Nn1nc(N2CCOCC2)c2ccccc2c1=O [Example 132, N-[4-(morpholin-4-yl)-1-oxophthalazin-2(1H)-yl]-2-[4-(trifluoromethoxy)phenyl]acetamide]	105	1.69	

Further lines, results first:

Emax [%]	EC50 [µM]	% MAX [%]	Compound
154	0.164		O=C(CC12CC3CC(CC1C3)C2)Nn1nc(N2CCOCC2)c2ccccc2c1=O [Example 210, 2-(hexahydro-2,5-methanopentalen-3a(1H)-yl)-N-[4-(morpholin-4-yl)-1-oxophthalazin-2(1H)-yl]acetamide]
46.2	0.148		O=C(Cc1ccc(Cl)cc1)Nn1nc(Cc2ccc(Cl)nc2)c2ccccc2c1=O [Example 32, 2-(4-chlorophenyl)-N-{4-[(6-chloropyridin-3-yl)methyl]-1-oxophthalazin-2(1H)-yl}acetamide]
14.2			CC(C)(C)NC(=O)Cc1nn(NC(=O)Cc2ccc(Cl)cc2)c(=O)c2ccccc12 [Example 122, N-{4-[2-(tert-butylamino)-2-oxoethyl]-1-oxophthalazin-2(1H)-yl}-2-(4-chlorophenyl)acetamide]
136	0.0674		O=C(CC1CC2CCC1C2)Nn1nc(-c2cccs2)c2ccccc2c1=O (racemic) [Example 12, (±)-2-[(exo)-bicyclo[2.2.1]hept-2-yl]-N-[1-oxo-4-(thiophen-2-yl)phthalazin-2(1H)-yl]acetamide]
147	0.132		CN(Cc1ccccc1)c1nn(NC(=O)Cc2cc(F)cc(F)c2)c(=O)c2ccccc12 [Example 53, N-{4-[benzyl(methyl)amino]-1-oxophthalazin-2(1H)-yl}-2-(3,5-difluorophenyl)acetamide]
	0.141	196	CC1CN(c2nn(NC(=O)CC3CC4CCC3C4)c(=O)c3ccccc23)CC(C)O1 (racemic) [Example 90, (±)-2-[(exo)-bicyclo[2.2.1]hept-2-yl]-N-{4-[(cis)-2,6-dimethylmorpholin-4-yl]-1-oxophthalazin-2(1H)-yl}acetamide]
75.2	0.155		N#Cc1ccc(S(=O)(=O)c2nn(NC(=O)Cc3ccc(F)cc3)c(=O)c3ccccc23)cc1 [Example 224, N-{4-[(4-cyanophenyl)sulfonyl]-1-oxophthalazin-2(1H)-yl}-2-(4-fluorophenyl)acetamide]
74.9	0.458		O=C(Cc1ccc(Cl)cc1)Nn1nc(-c2ccnc(C(F)(F)F)c2)c2ccccc2c1=O [Example 77, 2-(4-chlorophenyl)-N-{1-oxo-4-[2-(trifluoromethyl)pyridin-4-yl]phthalazin-2(1H)-yl}acetamide]
123	0.0303		O=C(Cc1ccc(Cl)cc1)Nn1nc(SCc2ccccc2)c2ccccc2c1=O [Example 213, N-[4-(benzylsulfanyl)-1-oxophthalazin-2(1H)-yl]-2-(4-chlorophenyl)acetamide]
85	0.621		O=C(Cc1ccc(Cl)cc1)Nn1nc(S(=O)(=O)c2ccncc2)c2ccccc2c1=O [Example 203, 2-(4-chlorophenyl)-N-[1-oxo-4-(pyridin-4-ylsulfonyl)phthalazin-2(1H)-yl]acetamide]
69.9	0.306		Cc1cccc(CC(=O)Nn2nc(S(=O)(=O)c3ccccc3)c3ccccc3c2=O)c1 [Example 207, 2-(3-methylphenyl)-N-[1-oxo-4-(phenylsulfonyl)phthalazin-2(1H)-yl]acetamide]
106	0.0647		O=C(Cc1cc(F)cc(F)c1)Nn1nc(S(=O)(=O)c2ccc(Br)cc2)c2ccccc2c1=O [Example 202, N-{4-[(4-bromophenyl)sulfonyl]-1-oxophthalazin-2(1H)-yl}-2-(3,5-difluorophenyl)acetamide]
